Measurements reported in PubChem BioAssay AID330 (DTP/NCI, 2004).
“And” between values parts separate entries of the source, which are not always exact repeats. Equal values may be shown once. Toxic doses and inconclusive results are not listed. The calls were made as follows: active = survival T/C of 150% or more; inactive = T/C below 125% in these data.

Test system: P388 leukemia ip, CD2F1 mice, survival T/C
Test: NCI In Vivo Anticancer Drug Screen. Data for tumor model P388 Leukemia (intraperitoneal) in CD2F1 (CDF1) mice
Conditions: endpoint: median survival time, higher = longer survival
In short: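 Mice carrying the transplanted tumor received test compound or vehicle. Survival was recorded in each group, and the value is the treated-group measurement divided by that of the vehicle-treated control group.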

[1] = dose: 100.0 mg/kg/injection, schedule: Q04DX003 (ip), vehicle: Klucel (hydroxypropylcellulose) (HPC)
[2] = dose: 200.0 mg/kg/injection, schedule: Q04DX003 (ip), vehicle: Klucel (hydroxypropylcellulose) (HPC)
[3] = dose: 100.0 mg/kg/injection, schedule: Q04DX002 (ip), vehicle: saline with Tween-80
[4] = dose: 200.0 mg/kg/injection, schedule: Q04DX002 (ip), vehicle: saline with Tween-80
[5] = dose: 400.0 mg/kg/injection, schedule: Q04DX002 (ip), vehicle: saline with Tween-80
[6] = dose: 12.5 mg/kg/injection, schedule: Q01DX009 (ip), vehicle: saline
[7] = dose: 25.0 mg/kg/injection, schedule: Q01DX009 (ip), vehicle: saline
[8] = dose: 100.0 mg/kg/injection, schedule: Q01DX009 (ip), vehicle: saline
[9] = dose: 50.0 mg/kg/injection, schedule: Q01DX005 (ip), vehicle: Klucel (hydroxypropylcellulose) (HPC)
[10] = dose: 100.0 mg/kg/injection, schedule: Q01DX005 (ip), vehicle: Klucel (hydroxypropylcellulose) (HPC)
[11] = dose: 200.0 mg/kg/injection, schedule: Q01DX005 (ip), vehicle: Klucel (hydroxypropylcellulose) (HPC)
[12] = dose: 50.0 mg/kg/injection, schedule: Q01DX005 (ip), vehicle: saline with Tween-80
[13] = dose: 100.0 mg/kg/injection, schedule: Q01DX005 (ip), vehicle: saline with Tween-80
[14] = dose: 200.0 mg/kg/injection, schedule: Q01DX005 (ip), vehicle: saline with Tween-80
[15] = dose: 100.0 mg/kg/injection, schedule: Q01DX009 (ip), vehicle: saline with Tween-80
[16] = dose: 100.0 mg/kg/injection, schedule: Q04DX003 (ip), vehicle: saline with Tween-80
[17] = dose: 200.0 mg/kg/injection, schedule: Q01DX009 (ip), vehicle: saline with Tween-80
[18] = dose: 200.0 mg/kg/injection, schedule: Q04DX003 (ip), vehicle: saline with Tween-80
[19] = dose: 400.0 mg/kg/injection, schedule: Q04DX003 (ip), vehicle: saline with Tween-80
[20] = dose: 6.25 mg/kg/injection, schedule: Q01DX009 (ip), vehicle: saline

Measured: T/C

CC(C)(C)P(O)(=S)c1ccccc1 (centres undefined) (tested in a mixture with another compound)
inactive: [1] 102 % of control | [2] 102 % of control | dose: 400.0 mg/kg/injection, schedule: Q04DX003 (ip), vehicle: Klucel (hydroxypropylcellulose) (HPC) 100 % of control

O=C(c1ccccc1)C1C(=O)c2cc3c(cc2C1=O)C(=O)C(C(=O)c1ccccc1)C3=O
inactive: dose: 25.0 mg/kg/injection, schedule: Q04DX002 (ip), vehicle: saline with Tween-80 99 % of control | dose: 50.0 mg/kg/injection, schedule: Q04DX002 (ip), vehicle: saline with Tween-80 95 % of control | [3] 95 % of control

COc1ccc(CN(CCCCCCN(Cc2ccc(OC)cc2)CC23CC4CC(CC(C4)C2)C3)CC23CC4CC(CC(C4)C2)C3)cc1
inactive: [3] 98 % of control | [4] 94 % of control | [5] 94 % of control

Cc1nc2[nH]c(=S)[nH]c(=O)c2[nH]c1=O
inactive: [6] 97 % of control | [7] 114 % of control | dose: 50.0 mg/kg/injection, schedule: Q01DX009 (ip), vehicle: saline 120 % of control | [8] 120 % of control

CCOC(=O)CCC1=C(C)c2cc3[n-]c(cc4nc(cc5[n-]c(cc1n2)c(CCC(=O)OCC)c5C)C=C4C)cc3C.[Cu+2]
inactive: [9] 101 % of control | [10] 97 % of control | [11] 100 % of control

CCCCNc1ccc(C(=O)OC2CCN(C)CC2)c(Cl)c1
inactive: dose: 0.79 mg/kg/injection, schedule: Q01DX009 (ip), vehicle: saline with Tween-80 111 % of control and 119 % of control and 97 % of control | dose: 1.56 mg/kg/injection, schedule: Q01DX009 (ip), vehicle: saline with Tween-80 106 % of control and 119 % of control | dose: 12.5 mg/kg/injection, schedule: Q01DX009 (ip), vehicle: saline with Tween-80 107 % of control

CC(C)(C)N=NNc1ccc(C#N)cc1
inactive: [3] 87 % of control | [4] 88 % of control | [5] 88 % of control

CN(CCC(=O)c1ccc(Cl)cc1)CCC(=O)c1ccc(Cl)cc1
inactive: [9] 117 % of control | [10] 108 % of control | [11] 104 % of control

CNC(=O)c1ccccc1C1(O)c2ccccc2CCc2ccccc21
inactive: [12] 94 % of control | [13] 93 % of control | [14] 90 % of control

NC(CCC(=O)NC(CS(=O)(=O)O)C(=O)O)C(=O)O (centres undefined)
inactive: dose: 60.0 mg/kg/injection, schedule: Q01DX005 (ip), vehicle: saline 108 % of control | dose: 120.0 mg/kg/injection, schedule: Q01DX005 (ip), vehicle: saline 108 % of control | dose: 240.0 mg/kg/injection, schedule: Q01DX005 (ip), vehicle: saline 108 % of control

C=C(c1ccc(N(CC)CC)cc1)c1ccc(N(CC)CC)cc1
inactive: [12] 95 % of control | [13] 103 % of control | [14] 90 % of control

O=C1NCCCC1(Cl)Cl
inactive: dose: 12.5 mg/kg/injection, schedule: Q01DX009 (ip), vehicle: Klucel (hydroxypropylcellulose) (HPC) 100 % of control | dose: 25.0 mg/kg/injection, schedule: Q01DX009 (ip), vehicle: Klucel (hydroxypropylcellulose) (HPC) 104 % of control | dose: 50.0 mg/kg/injection, schedule: Q01DX009 (ip), vehicle: Klucel (hydroxypropylcellulose) (HPC) 94 % of control

S=c1nc[nH]c2c1ncn2C1CCCCO1 (centres undefined)
inactive: dose: 15.0 mg/kg/injection, schedule: Q01DX009 (ip), vehicle: saline with Tween-80 86 % of control | dose: 30.0 mg/kg/injection, schedule: Q01DX009 (ip), vehicle: saline with Tween-80 104 % of control | dose: 60.0 mg/kg/injection, schedule: Q01DX009 (ip), vehicle: saline with Tween-80 113 % of control | dose: 62.5 mg/kg/injection, schedule: Q01DX009 (ip), vehicle: Klucel (hydroxypropylcellulose) (HPC) 86 % of control | [15] 118 % of control | [16] 91 % of control | dose: 120.0 mg/kg/injection, schedule: Q01DX009 (ip), vehicle: saline with Tween-80 108 % of control | dose: 125.0 mg/kg/injection, schedule: Q01DX009 (ip), vehicle: Klucel (hydroxypropylcellulose) (HPC) 109 % of control | [17] 104 % of control | [18] 108 % of control | dose: 250.0 mg/kg/injection, schedule: Q01DX009 (ip), vehicle: Klucel (hydroxypropylcellulose) (HPC) 90 % of control | [19] 112 % of control

CCSC(=S)N(CC)c1nc2ccccc2o1
inactive: [3] 105 % of control | [4] 113 % of control | [5] 122 % of control

O=C1CS/C(=N\C(=O)Nc2ccc(Cl)c(Cl)c2)N1
inactive: [20] 91 % of control | [6] 100 % of control | [7] 94 % of control | dose: 50.0 mg/kg/injection, schedule: Q01DX009 (ip), vehicle: saline + alcohol 88 % of control | dose: 100.0 mg/kg/injection, schedule: Q01DX009 (ip), vehicle: saline + alcohol 91 % of control | dose: 200.0 mg/kg/injection, schedule: Q01DX009 (ip), vehicle: saline + alcohol 88 % of control

Cc1cc(NS(=O)(=O)c2ccc(N=c3c4ccccc4n(-c4ccccc4)c4ccccc34)cc2)no1
inactive: [12] 103 % of control | [13] 92 % of control | [14] 90 % of control

CC(C)(C)N=C(CC(=NC(C)(C)C)Nc1ccccc1Cl)Nc1ccccc1Cl
inactive: dose: 50.0 mg/kg/injection, schedule: Q01DX009 (ip), vehicle: saline with Tween-80 91 % of control | [15] 92 % of control | [17] 86 % of control

COC(=O)n1nc(C)c(N(C)C)n1
inactive: [12] 99 % of control | [13] 106 % of control | [14] 113 % of control

C=C1N=NN(c2ccc([N+](=O)[O-])cc2)C1N1CCOCC1 (centres undefined)
inactive: dose: 60.0 mg/kg/injection, schedule: Q01DX005 (ip), vehicle: Klucel (hydroxypropylcellulose) (HPC) 100 % of control | dose: 120.0 mg/kg/injection, schedule: Q01DX005 (ip), vehicle: Klucel (hydroxypropylcellulose) (HPC) 101 % of control | dose: 240.0 mg/kg/injection, schedule: Q01DX005 (ip), vehicle: Klucel (hydroxypropylcellulose) (HPC) 105 % of control

[O-][n+]1ccccc1C1CO1 (centres undefined)
inactive: [20] 105 % of control | [6] 103 % of control | [7] 102 % of control | [8] 88 % of control

[O-]c1on[n+](-c2ccccc2)c1CN1CCOCC1
inactive: [9] 107 % of control | [10] 111 % of control | [11] 102 % of control

NC(=S)N/N=C/c1cn(-c2ccccc2[N+](=O)[O-])cn1
inactive: [1] 103 % of control | [2] 90 % of control

C=CCn1ccn(C)c1=S
inactive: [16] 101 % of control | [18] 98 % of control | [19] 102 % of control

COC(=O)C(C)(OC)OC
inactive: dose: 100.0 mg/kg/injection, schedule: Q04DX003 (ip), vehicle: saline 100 % of control | dose: 200.0 mg/kg/injection, schedule: Q04DX003 (ip), vehicle: saline 109 % of control | dose: 400.0 mg/kg/injection, schedule: Q04DX003 (ip), vehicle: saline 100 % of control

COc1cc2c(cc1OC)C1=[N+](CC2)C2=C(CC1)C(=O)CCC2
inactive: dose: 25.0 mg/kg/injection, schedule: Q01DX005 (ip), vehicle: Klucel (hydroxypropylcellulose) (HPC) 94 % of control | [9] 97 % of control | [10] 99 % of control | [11] 93 % of control
